Experimental data: ChEMBL document CHEMBL3994626 (Bioorg Med Chem Lett, 2017)
One block for each molecule: values may come before it.

Key:
[1] = AUC in BALB/c mouse up to 300 mg/kg, qd measured on day 4; format: ADME, organism-based; conditions: in vivo
[2] = Drug uptake in Balb/c mouse KLH model at 15 mg/kg, po after 24 hrs; format: ADME, organism-based; conditions: in vivo, read-out: Drug uptake
[3] = Drug uptake in Balb/c mouse KLH model at 3 mg/kg, po after 24 hrs; format: ADME, organism-based; conditions: in vivo, read-out: Drug uptake
[4] = Drug uptake in Balb/c mouse KLH model at 3 mg/kg, po after 7 hrs; format: ADME, organism-based; conditions: in vivo, read-out: Drug uptake
[5] = Drug uptake in Balb/c mouse KLH model at 15 mg/kg, po after 7 hrs; format: ADME, organism-based; conditions: in vivo, read-out: Drug uptake
[6] = Drug uptake in Balb/c mouse KLH model at 0.6 mg/kg, po after 24 hrs; format: ADME, organism-based; conditions: in vivo, read-out: Drug uptake
[7] = Stability in mouse liver microsomes assessed as parent compound remaining at 0.5 uM after 10 mins by high throughput assay; format: ADME, microsome; conditions: read-out: Stability
[8] = Drug uptake in KLH Balb/c mouse model at 0.6 mg/kg, po after 7 hrs; format: ADME, organism-based; conditions: in vivo, read-out: Drug uptake
[9] = Cmax in BALB/c mouse up to 300 mg/kg, qd measured on day 4; format: ADME, organism-based; set-up: dose 300 mg/kg; conditions: in vivo

AUC [1]: ≤ 520 µM·h | concentration at 24 h [2]: < 7 nM | concentration at 24 h [3]: < 3.9 nM | concentration at 7 h [4]: 24.9 nM | concentration at 7 h [5]: 97.8 nM | concentration at 24 h [6]: < 5.6 nM | remaining at 10 min, 0.5 µM [7]: 54% | concentration at 7 h [8]: < 6.4 nM | Cmax [9]: ≤ 55000 nM
SMILES: CC(=O)N1C[C@@H](C)N(c2cccc(-c3cc(-c4ccnn4C4CCOCC4)c4c(N)ncnn34)c2)[C@@H](C)C1

remaining at 10 min, 0.5 µM [7]: 14%
SMILES: COc1cc(-c2cc(-c3ccnn3C3CCOCC3)c3c(N)ncnn23)cc(N2[C@H](C)CN(C(C)=O)C[C@@H]2C)c1

remaining at 10 min, 0.5 µM [7]: 48%
SMILES: CC(=O)N1C[C@@H](C)N(c2cncc(-c3cc(-c4ccnn4C4CCOCC4)c4c(N)ncnn34)c2)[C@@H](C)C1

remaining at 10 min, 0.5 µM [7]: 35%
SMILES: CC(=O)N1C[C@@H](C)N(c2cc(F)cc(-c3cc(-c4ccnn4C4CCOCC4)c4c(N)ncnn34)c2)[C@@H](C)C1
